Literature values in patent publication US10022309B2, “Composition, comprising hydrofluoric acid, for inhibiting dental erosion” ([…], priority 2004, dated 2018).

Key:
[1] = pre-treatment with 1% neutral NaF or 4% TiF4; 50 mM citric acid with calcium and phosphate, pH 3, 30 min; without treatment 4.5 um
[2] = aqueous solution
[3] = 24 h treatment (1.2% NaF or Duraphat varnish); then cola-drink pH 2.6 for 4 min

Q: With `[F][Ti]([F])([F])[F]` [TiF4, titanium tetrafluoride] as the molecule, how does the mean lesion depth [1] read?
A: 2.7 um

Q: Which pKa [2] does the source give for `F` [hydrofluoric acid] here?
A: 3.45

Q: For `[F-].[Na+]` [NaF, sodium fluoride], which “hardness of enamel compared with untreated control” value [3] is on record?
A: improved

Q: What about the mean lesion depth [1] of the same molecule?
A: 3.5 um
